Test results as given in patent US11634701B2, “Metabolic pathways with increased carbon yield” (TOTAL RAFFINAGE CHIMIE, priority 2018, dated 2023).
Where two headings read alike, the source gives them in different places.

Key:
[1] = system: C. acetobutylicum Tpi (triose phosphate isomerase); details: measured experimentally or estimated from literature, cited from earlier work
[2] = system: C. acetobutylicum Fba (fructose-1,6-bisphosphate aldolase); details: measured experimentally or estimated from literature, cited from earlier work
[3] = system: C. acetobutylicum Tal (transaldolase); details: measured experimentally or estimated from literature, cited from earlier work
[4] = system: C. acetobutylicum Tkt′ (transketolase, second reaction); details: measured experimentally or estimated from literature, cited from earlier work
[5] = system: C. acetobutylicum Fbp (fructose-1,6-biphosphatase); assay: Kinetic parameters of C. acetobutylicum NOG enzymes (Fbp); assay type: biochemical; details: measured experimentally or estimated from literature
Procedure: (§1) The kinetic parameters of C. acetobutylicum enzymes involved in the NOG pathway were measured experimentally or estimated from literature (Table 1) and compiled in a COPASI toolbox for kinetic simulations.

[6] = system: C. acetobutylicum Fba (fructose-1,6-bisphosphate aldolase); assay: Kinetic parameters of C. acetobutylicum NOG enzymes (Fba); assay type: biochemical; details: measured experimentally or estimated from literature; read-out: Kms
Procedure: as §1

[7] = system: C. acetobutylicum Tkt (transketolase); details: measured experimentally or estimated from literature, cited from earlier work
[8] = system: C. acetobutylicum Rpi (ribose-5-phosphate isomerase); details: measured experimentally or estimated from literature, cited from earlier work
[9] = system: C. acetobutylicum Rpe (ribulose-3-phosphate epimerase); details: measured experimentally or estimated from literature, cited from earlier work
[10] = molecular target: T1, C. acetobutylicum Xpk (xylulose-5-phosphate phosphoketolase) (Clostridium acetobutylicum, UniProt Q97JE3); assay: Kinetic parameters of C. acetobutylicum NOG enzymes (Xpk); assay type: biochemical; details: measured experimentally or estimated from literature
T1 sequence (Q97JE3 1-796): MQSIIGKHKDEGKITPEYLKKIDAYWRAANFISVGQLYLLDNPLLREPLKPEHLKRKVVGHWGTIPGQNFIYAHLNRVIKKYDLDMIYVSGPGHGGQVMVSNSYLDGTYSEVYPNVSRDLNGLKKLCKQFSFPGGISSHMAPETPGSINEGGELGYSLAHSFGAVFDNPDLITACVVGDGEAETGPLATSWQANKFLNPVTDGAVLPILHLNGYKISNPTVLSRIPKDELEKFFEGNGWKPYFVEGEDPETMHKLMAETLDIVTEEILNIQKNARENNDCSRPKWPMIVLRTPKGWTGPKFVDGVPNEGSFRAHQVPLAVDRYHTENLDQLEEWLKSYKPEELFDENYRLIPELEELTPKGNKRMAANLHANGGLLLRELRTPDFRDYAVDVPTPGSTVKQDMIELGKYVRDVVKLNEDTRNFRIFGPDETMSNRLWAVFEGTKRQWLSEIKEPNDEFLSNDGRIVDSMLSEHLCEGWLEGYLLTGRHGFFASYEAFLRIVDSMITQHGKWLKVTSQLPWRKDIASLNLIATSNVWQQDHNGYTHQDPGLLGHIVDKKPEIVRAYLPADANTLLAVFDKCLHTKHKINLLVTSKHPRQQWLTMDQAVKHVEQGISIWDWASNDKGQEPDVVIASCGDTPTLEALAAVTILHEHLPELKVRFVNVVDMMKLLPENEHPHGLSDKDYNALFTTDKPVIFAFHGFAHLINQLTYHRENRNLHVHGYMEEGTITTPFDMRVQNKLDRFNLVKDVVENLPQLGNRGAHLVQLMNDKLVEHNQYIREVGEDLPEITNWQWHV
Procedure: as §1

O=C(CO)COP(=O)(O)O [dihydroxyacetone phosphate]
Km ([1]; read-out: Kms): 6450 µM | Km ([2]; read-out: Kmp): 2000 µM

O=C[C@H](O)[C@H](O)COP(=O)(O)O [erythrose-4-phosphate]
Km ([3]; read-out: Kmq): 362 µM | Km ([4]; read-out: Kma): 946 µM

O=P(O)(O)OC[C@H]1OC(O)(COP(=O)(O)O)[C@@H](O)[C@@H]1O (stereo partly shown) [fructose-1,6-bisphosphate]
Km [5]: 63 µM | Km [6]: 1140 µM

O=P(O)(O)OC[C@H]1OC(O)(CO)[C@@H](O)[C@@H]1O (stereo partly shown) [fructose-6-phosphate]
Km ([3]; read-out: Kmp): 1440 µM | Km ([4]; read-out: Kmp): 1100 µM

O=C[C@H](O)COP(=O)(O)O [glyceraldehyde-3-phosphate]
Km ([3]; read-out: Kma): 272 µM | Km ([4]; read-out: Kmq): 100 µM | Km ([1]; read-out: Kmp): 5250 µM | Ki ([2]; read-out: Kip): 10 mM | Km ([2]; read-out: Kmq): 2400 µM

O=P(O)(O)OC[C@H]1OC(O)[C@H](O)[C@@H]1O (stereo partly shown) [ribose-5-phosphate]
Km ([7]; read-out: Kmb): 235 µM | Km ([8]; read-out: Kmp): 5700 µM

O=C(CO)[C@H](O)[C@H](O)COP(=O)(O)O [ribulose-5-phosphate]
Km ([9]; read-out: Kms): 5970 µM | Km ([8]; read-out: Kms): 2470 µM

O=C(CO)[C@@H](O)[C@H](O)[C@H](O)[C@H](O)COP(=O)(O)O [sedoheptulose-7-phosphate]
Km ([3]; read-out: Kmb): 786 µM | Km ([7]; read-out: Kmq): 150 µM

O=C(CO)[C@@H](O)[C@H](O)COP(=O)(O)O [xylulose-5-phosphate]
Km [10]: 6400 µM | Km ([4]; read-out: Kmb): 670 µM | Km ([9]; read-out: Kmp): 7700 µM
